Values after ≈ are worked out from the molar mass of the structure shown. Where two headings read alike, the source gives them in different places.
Key:
solubility in water = type: physicochemical; settings: parts of water needed to dissolve the salt
[1] = tested on: Streptococcus beta-haemolyticus; assay: in vitro antibacterial activity (MIC) against hospital strains; type: cell-based
[2] = Streptococcus beta-haemolyticus strain B (hospital strain)
[3] = Streptococcus beta-haemolyticus strain C (hospital strain)
[4] = Streptococcus beta-haemolyticus strain D (hospital strain)
[5] = Streptococcus beta-haemolyticus strain A (hospital strain)

soluble in p. water (solubility in water) [p.]	soluble in p. ethanol 95% v/v (solubility in ethanol) [p.]	Compound	MIC [1, 2] [µg⁻¹ mL⁻¹]	MIC [1, 3] [µg⁻¹ mL⁻¹]	MIC [1, 4] [µg⁻¹ mL⁻¹]	MIC [1, 5] [µg⁻¹ mL⁻¹]	MIC ([1]; Streptococcus, Streptococcus beta-haemolyticus strain C (hospital strain)) [µg/mL]	MIC ([1]; Streptococcus, Streptococcus beta-haemolyticus strain A (hospital strain), read-out: MIC) [µg/mL]	MIC ([1]; Streptococcus, Streptococcus beta-haemolyticus strain B (hospital strain), read-out: MIC) [µg/mL]	MIC ([1]; Streptococcus, Streptococcus beta-haemolyticus strain C (hospital strain), read-out: MIC) [µg/mL]	MIC ([1]; Streptococcus, Streptococcus beta-haemolyticus strain D (hospital strain), read-out: MIC) [µg/mL]
		CC[C@H]1OC(=O)[C@H](C)[C@@H](O[C@H]2C[C@@](C)(OC)[C@@H](O)[C@H](C)O2)[C@H](C)[C@@H](O[C@@H]2O[C@H](C)C[C@H](N(C)C)[C@H]2O)[C@](C)(O)C[C@@H](C)C(=O)[C@H](C)[C@@H](O)[C@]1(C)O [Erythromycin base, erythromycin A, reference compound]			0.6	5	0.6 (≈ 0.818 µM)				
90	2	CCC(=O)O[C@H]1[C@H](O[C@@H]2[C@@H](C)[C@H](O[C@H]3C[C@@](C)(OC)[C@@H](O)[C@H](C)O3)[C@@H](C)C(=O)O[C@H](CC)[C@@](C)(O)[C@H](O)[C@@H](C)C(=O)[C@H](C)C[C@@]2(C)O)O[C@H](C)C[C@@H]1N(C)C [Propionylerythromycin (+)-alpha-mercapto-propionyl-glycinate] [Propionylerythromycin (+)-alpha-mercaptopropionyl-glycinate]	0.3	0.3	0.3	5					
300	4	CCC(=O)O[C@H]1[C@H](O[C@@H]2[C@@H](C)[C@H](O[C@H]3C[C@@](C)(OC)[C@@H](O)[C@H](C)O3)[C@@H](C)C(=O)O[C@H](CC)[C@@](C)(O)[C@H](O)[C@@H](C)C(=O)[C@H](C)C[C@@]2(C)O)O[C@H](C)C[C@@H]1N(C)C [Propionylerythromycin acetylsalicylate]	0.3	0.3	0.3	5					
		CCC(=O)O[C@H]1[C@H](O[C@@H]2[C@@H](C)[C@H](O[C@H]3C[C@@](C)(OC)[C@@H](O)[C@H](C)O3)[C@@H](C)C(=O)O[C@H](CC)[C@@](C)(O)[C@H](O)[C@@H](C)C(=O)[C@H](C)C[C@@]2(C)O)O[C@H](C)C[C@@H]1N(C)C [Propionylerythromycin base, propionic ester (2'-.propanoate) of erythromycin A, reference compound]						2.5 (≈ 3.16 µM)	0.6 (≈ 0.759 µM)	0.6 (≈ 0.759 µM)	0.6 (≈ 0.759 µM)
60	2	CCC(=O)O[C@H]1[C@H](O[C@@H]2[C@@H](C)[C@H](O[C@H]3C[C@@](C)(OC)[C@@H](O)[C@H](C)O3)[C@@H](C)C(=O)O[C@H](CC)[C@@](C)(O)[C@H](O)[C@@H](C)C(=O)[C@H](C)C[C@@]2(C)O)O[C@H](C)C[C@@H]1N(C)C [propionylerythromycin (-)-alpha-propionyl-glycinate]									

Compound	soluble in p. water (solubility in water) [p.]	soluble in p. ethanol 95% v/v (solubility in ethanol) [p.]	MIC [1, 2] [µg⁻¹ mL⁻¹]	MIC [1, 3] [µg⁻¹ mL⁻¹]	MIC [1, 4] [µg⁻¹ mL⁻¹]	MIC [1, 5] [µg⁻¹ mL⁻¹]	MIC ([1]; Streptococcus, Streptococcus beta-haemolyticus strain C (hospital strain)) [µg/mL]	MIC ([1]; Streptococcus, Streptococcus beta-haemolyticus strain A (hospital strain), read-out: MIC) [µg/mL]	MIC ([1]; Streptococcus, Streptococcus beta-haemolyticus strain B (hospital strain), read-out: MIC) [µg/mL]	MIC ([1]; Streptococcus, Streptococcus beta-haemolyticus strain C (hospital strain), read-out: MIC) [µg/mL]	MIC ([1]; Streptococcus, Streptococcus beta-haemolyticus strain D (hospital strain), read-out: MIC) [µg/mL]
CC[C@H]1OC(=O)[C@H](C)[C@@H](O[C@H]2C[C@@](C)(OC)[C@@H](O)[C@H](C)O2)[C@H](C)[C@@H](O[C@@H]2O[C@H](C)C[C@H](N(C)C)[C@H]2O)[C@](C)(O)C[C@@H](C)C(=O)[C@H](C)[C@@H](O)[C@]1(C)O [Erythromycin acetylsalicylate]	100		0.6	0.3	0.075						

From patent publication EP0096013A1, “Salts of erythromycin showing a combined therapeutic activity, process for their preparation and pharmaceutical formulations containing them” (NUOVO CONSORZIO SANITARIO NAZIONALE, priority 1982, dated 1983)
